We go through six compounds from paper PMC10745926, “Synthesis and Evaluation of Compound Targeting α7 and β2 Subunits in Nicotinic Acetylcholinergic Receptor” (Molecules, 2023).

pIC50, pKi: −log10 of the molar value. Like-named read-outs stand apart in the source and are kept apart here. Marks after values point to notes of the source that are not given here.

The target of assay [1] is T1, α4β2* nAChR (Rattus norvegicus, UniProt P09483+P12390).
T1 construct: Horizontal brain slices, 10 µm thick from male Sprague Dawley rats; from tissue; host or cells: rat brain slices (male Sprague Dawley), several brain regions
Kind of assay: [3H]cytisine competition binding on rat brain slices (autoradiography). As for the experimental part: Our previously published procedures were used for [^3H]cytisine experiments. Horizontal brain slices, 10 µm thick from male Sprague Dawley rats, were preincubated in the buffer (50 mmol/L Tris HCl containing 120 mmol/L NaCl, 5 mmol/L KCl, 2.5 mmol/L CaCl2, 1 mmol/L MgCl2, pH 7.4) for 10 min. The pre-incubation buffer was then discarded and the slices were incubated with [^3H]cytisine (2.5 nM, specific activity of 32.7 Ci/mmol) at 2 °C for 75 min. […] After incubation, slices were washed twice (2 min each wash) with ice-cold Tris buffer, pH 7.4, followed by a quick rinse in cold (0–5 °C) deionized water. The slides were then air dried and the radiolabeled brain sections were apposed on storage phosphor screens for two weeks (Perkin Elmer Multisensitive, Medium MS, New Jersy, USA). For autoradiographic analysis, the apposed phosphor screens were read and analyzed by OptiQuant acquisition and analysis program of the Cyclone Storage Phosphor System (Packard Instruments Co., Boston, MA, USA). Regions of interest of same size were drawn and analyzed on brain regions using OptiQuant software version 2 and binding of [^3H]cytisine measured in DLU/mm^2. Data were analyzed using following procedure: (a) the non-specific binding of [^3H]cytisine was subtracted for all samples; (b) the specific binding was normalized to 100% (no competitive ligand); and (c) the binding isotherms were fit to the Hill equation (KELL BioSoft software (v 6), Cambridge, UK).

Assay [2] has as its target T2, α7 nAChR (Rattus norvegicus, UniProt Q05941). Kind of assay: biochemical. Type of assay: binding.
Assay [3] deals with α7 nAChR. The assay can be described thus: HEK293 cells transfected with α7 nAChRs (ASEM, literature). The assay is classed as binding. To be noted: from cited affinities.
Assay [4] deals with α4β2 nAChR. More on the design: method as in PMID 24050653. To be noted: HEK293 cells transfected with α4β2 nAChRs; read-out: Binding affinity α4β2*; cited from earlier work.
Assay [5] has as its target α7 nAChR. The arrangement: method as in PMID 24050653. The following applies: HEK293 cells transfected with α7 nAChRs; read-out: Binding affinity α7*; cited from earlier work.
Assay [6] addresses T1, α4β2* nAChR. Type of assay: binding.
Assay [7] addresses T1, α4β2* nAChR. Kind of assay: Rat brain homogenates labeled with 3H-cytisine (literature). To be noted: α4β2 value from 3H-cytisine rat brain homogenates, α7 from rat cloned receptors. Type of assay: binding.
The target of assay [8] is T1, α4β2* nAChR. The following applies: read-out: Binding affinity α4β2*; rat brain cortex labeled with 3H-epibatidine; cited from earlier work.
Assay [9] has as its target T2, α7 nAChR. The arrangement: method as in PMID 28875553. To be noted: rat cloned receptors labeled with α-[125I]BuTX; read-out: Binding affinity α7*; cited from earlier work.
The target in assay [10] is T2, α7 nAChR. Type of assay: binding.
Assay [11] relates to α4β2* nAChR. The following applies: cited from earlier work.
In assay [12] the target is T2, α7 nAChR. The arrangement: method as in PMID 18445710. To be noted: tested in rat; read-out: Binding affinity α7*; cited from earlier work.
Assay [13] concerns α7 nAChR. The assay can be described thus: HEK293 membranes expressing α7 nAChRs (Iodo-ASEM, literature). The assay is classed as binding. To be noted: IodoASEM, from cited affinities.
For assay [14], the target named is α4β2 nAChR. The arrangement: method as in PMID 25687449. The following applies: HEK293 membranes expressing α4β2 nAChRs; read-out: Binding affinity α4β2*; cited from earlier work.
Assay [15] deals with α7 nAChR. The arrangement: method as in PMID 25687449. The following applies: cited from earlier work.
In assay [16] the test system is human α4β2 nAChR. To be noted: cytisine, from cited affinities.
The test system of assay [17] is human α4β2 nAChR. The following applies: cited from earlier work.
For the next assay, the target named is human α7 nAChR. To be noted: read-out: Binding affinity α7*; human α7 nAChR in SH-SY5Y cells; cited from earlier work.
Where [18] appears, read: frontal cortex values taken from Table 1.

`c1ncc(N2CCN3CCC2CC3)cc1OCC1CCN1` [KS7, 3-(2-(S)-azetidinylmethoxy)-5-(1,4-diaza-bicyclo[3.2.2]nonane)pyridine]: the pIC50 at α4β2* nAChR [1] (frontal cortex value taken from Table 1, read-out: Binding affinity α4β2*) is 6.96; at α4β2* nAChR [1] (rat brain slices, Anterior Cingulate, read-out: Inhibition constants (IC50), [3H]Cytisine, α4β2* nAChRs), 7.31; at α4β2* nAChR [1] (rat brain slices, Frontal Cortex, read-out: Inhibition constants (IC50), [3H]Cytisine, α4β2* nAChRs), 6.96; at α4β2* nAChR [1] (rat brain slices, Striatum, read-out: Inhibition constants (IC50), [3H]Cytisine, α4β2* nAChRs) it was 7.06; at α4β2* nAChR [1] (rat brain slices, Subiculum, read-out: Inhibition constants (IC50), [3H]Cytisine, α4β2* nAChRs), 6.76; at α4β2* nAChR [1] (rat brain slices, Thalamus, read-out: Inhibition constants (IC50), [3H]Cytisine, α4β2* nAChRs), 6.87. For the same compound, the pIC50 at α4β2* nAChR [1] (rat brain, several brain regions (abstract), read-out: IC50 for [3H]cytisine radiolabeled sites) is 6.76 to 7.30; at α7 nAChR [2] (frontal cortex value taken from Table 1, read-out: Binding affinity α7*), 5.00; at α7 nAChR [2] (rat brain slices, Anterior Cingulate, read-out: Inhibition constants (IC50), [125I]α-BuTX, α7* nAChRs), 4.90; on α7 nAChR [2] (rat brain slices, Frontal Cortex, read-out: Inhibition constants (IC50), [125I]α-BuTX, α7* nAChRs), 5.00; at α7 nAChR [2] (rat brain slices, Hippocampus, read-out: Inhibition constants (IC50), [125I]α-BuTX, α7* nAChRs), 4.48; on α7 nAChR [2] (rat brain slices, Inferior Colliculus, read-out: Inhibition constants (IC50), [125I]α-BuTX, α7* nAChRs) it was 4.33. The “α4β2/α7 Ratio” value at α4β2* nAChR [1] (setting [18]) is 0.01 ^j. The “α7/α4β2 Ratio” value is given as 91 ^j on α4β2* nAChR [1] (setting [18]); 254 at α4β2* nAChR [1] (ratio of IC50 values, Anterior Cingulate); 91 at α4β2* nAChR [1] (ratio of IC50 values, Frontal Cortex).

Consider `O=S1(=O)c2cc(N3CCN4CCC3CC4)ccc2-c2cccc(F)c21` [ASEM], for which the “α7/α4β2 Ratio” value with α7 nAChR [3] was 0.0007. Further, the results for the pKi on α4β2 nAChR [4] and at α7 nAChR [5] were 6.25 and 9.43, respectively.

For `Fc1ncccc1OC[C@@H]1C=CCN1` [Nifene], the “α4β2/α7 Ratio” value at α4β2* nAChR [6] (listed as with α4β2 value from 3H-epibatidine rat cortex) turned out to be 0.007. Further, the “α7/α4β2 Ratio” value is on record as 158 on α4β2* nAChR [6] (α4β2 value from 3H-epibatidine rat cortex, α7 from rat cloned receptors) and 338 at α4β2* nAChR [7]. In addition, the pKi was 8.97 on α4β2* nAChR [8] and 6.77 at α7 nAChR [9].

As to α-Iodobungarotoxin, at α7 nAChR [10], the “α4β2/α7 Ratio” value is listed as 2000 and the “α7/α4β2 Ratio” value stood at 0.0005. Also, the “Binding affinity α4β2*” value in the assay on α4β2* nAChR [11] is listed as >1000 ^f nM. Moreover, the pKi on α7 nAChR [12] was 9.30.

For the compound `O=S1(=O)c2cc(N3CCN4CCC3CC4)ccc2-c2cccc(I)c21` [IodoASEM], in the assay with α7 nAChR [13], the “α7/α4β2 Ratio” value is 0.0003. Moreover, the pKi was 5.77 at α4β2 nAChR [14] and 9.30 at α7 nAChR [15] (HEK293 membranes expressing α7 nAChRs, read-out: Binding affinity α7*). Besides, the “α4β2/α7 Ratio” value in the assay on α7 nAChR [15] (HEK293 membranes) is listed as 3414 ^h.

For `O=c1cccc2n1C[C@@H]1CNC[C@H]2C1` [Cytisine], the “α4β2/α7 Ratio” value in the assay on human α4β2 nAChR [16] amounted to 0.002. Moreover, the “α7/α4β2 Ratio” value in the assay on human α4β2 nAChR [17] (heterologously expressed human receptors) is given as 544 ^e. The pKi at human α4β2 nAChR [17] (read-out: Binding affinity α4β2*, human α4β2 in HEK293 cells) was 8.90; on human α7 nAChR, 6.16.
